# Experiments:
# [1] = test system: Bacillus cereus ATCC 10876; assay: agar diffusion test with impregnated cellulose discs; format: cell-based; conditions: incl. 6 mm disc
# [2] = test system: fungal population; assay: disinfection by drencher of naturally contaminated containers of a citrus fruit processing plant; conditions: PTSO 2000 ppm
# [3] = test system: plants inoculated with mycorrhizal fungi; conditions: in vivo
# [4] = test system: mixture of fungi (P. expansum, P. italicum, P. digitatum and A. alternata); assay: disinfection of rooms by means of fogging
# [5] = test system: post-harvest rot; assay: post-harvest rot of oranges originating directly from the field (not inoculated); format: in vivo
# Method: Once the oranges had been artificially contaminated, the treatments were conducted by immersing the oranges in solutions of PTS and PTSO prepared at doses of 1600 and 2500 ppm, and were stored at 20° C.
# The assessment of the effectiveness of PTS and PTSO comprised counting of the number of fruits affected by rot in the inoculated zone, to determine the percentage of fruit affected for each treatment and fungus inoculated, and expressing this effectiveness as a percentage of reduction of the affected fruit.
# On the basis of the results obtained by the application of PTS and PTSO to oranges of the Navelina variety originating directly from the field, both products, applied in the specified doses, are effective in the control of post-harvest rot. Both PTS and PTSO in turn reduce by 50% the quantity of fruit affected at the end of the refrigeration period (28 days at a temperature of 5° C.) compared to the untreated fruit, as a result of which they are an effective alternative to the synthetic treatments conventionally used.
# [6] = test system: Rhizopus stolonifer; assay: disinfection of containers stored inside the rooms by fogging
# [7] = test system: Penicillium solitum Wild strain; assay: agar diffusion test with impregnated cellulose discs; format: cell-based; conditions: incl. 6 mm disc
# [8] = test system: Enteroccus faecalis ATCC 29212; assay: as above; format: cell-based; conditions: incl. 6 mm disc
# [9] = test system: Penicillium digitatum; assay: reduction of spores in suspension in absence or presence of organic matter; format: cell-based; conditions: PTSO 2000 ppm 1 min.
# Text: (§1) In addition, under the real conditions of a disinfecting bath for boxes, crates and containers, as well as for the disinfection of rooms and work surfaces, organic material (soil residue, rotten fruit, leaves etc.) is generally present, which can reduce the action of the disinfectant agent. Therefore, the effectiveness of PTS and PTSO has also been assessed in the presence of organic matter on two pathogens that cause post-harvest rot of stone fruit (Penicillium expansum) and citrus fruit (Penicillium digitatum).
# [10] = test system: Penicillium expansum; assay: as above; format: cell-based; conditions: PTSO 2000 ppm 1 min.
# Text: as §1
# [11] = test system: R. stolonifer; assay: disinfection of artificially contaminated containers by drencher; design: species or system Rhizopus stolonifer; conditions: drencher 30 seconds
# Method: A test of the disinfection of containers (fruit boxes and crates) was conducted in which a level of artificial contamination was created by means of controlled inoculation, with the objective of determining optimum doses of application to achieve a satisfactory disinfection. First the containers (made of wood and plastic) were disinfected with sodium hypochlorite, and they were then artificially contaminated via controlled inoculations with different fungi characteristic of the fruit and vegetable processing sector. For this purpose, isolated wild strains were used which, after sporulation, were collected to create a suspension of mixed spores of various fungi (Penicillium expansum, Penicillium italicum, Penicillium digitarum and Alternario alternata) and, separately in simultaneous tests (as a result of its higher rate of growth and its invasive character), a suspension of Rhizopus stolonifer. […] After this fogging, the containers were allowed to dry. The containers were then sampled to determine the level of initial contamination achieved (by means of contact plates containing Rose Bengal agar). The containers were then treated in a pilot line […]. The hold time of the containers under the showers was 30 seconds, and the test doses were 750 ppm and 1050 ppm for PTS and 2000 ppm and 5000 ppm in the case of PTSO. After exiting the showers, the treated containers were allowed to dry, and were again sampled using contact plates with Rose Bengal agar to determine the final level of contamination. The sampling unit was 3 containers and 3 plates per repetition.
# [12] = test system: Bacillus subtilis ATCC 6633; assay: agar diffusion test with impregnated cellulose discs; format: cell-based; conditions: incl. 6 mm disc
# [13] = test system: Fungi mixture (P. expansum, P. italicum, P. digitatum and A. Alternata); assay: disinfection of containers stored inside the rooms by fogging
# [14] = test system: Salmonella typhimurium ATCC 13311; assay: agar diffusion test with impregnated cellulose discs; format: cell-based; conditions: incl. 6 mm disc
# [15] = test system: Pseudomonas aeruginosa ATCC 9027; assay: as above; format: cell-based; conditions: incl. 6 mm disc
# [16] = organic matter Absence, 0 hours
# [17] = organic matter Absence, 2 hours
# [18] = organic matter Absence, 3 hours
# [19] = organic matter Presence, 0 hours
# [20] = organic matter Presence, 1 hour
# [21] = organic matter Presence, 2 hours
# [22] = organic matter Presence, 3 hours
structure (smiles),measurement,setting,value
"CCCSS(=O)(=O)CCC [PTSO, Propyl Propyl Thiosulfonate]",diameter of the microbial inhibition halo,[1]; 60 ppm,25 mm
same,diameter of the microbial inhibition halo,[1]; 125 ppm,35 mm
same,diameter of the microbial inhibition halo,[1]; 250 ppm,45 mm
same,diameter of the microbial inhibition halo,[1]; 500 ppm,47 mm
same,diameter of the microbial inhibition halo,[1]; 1000 ppm,49 mm
same,Reduction of the fungal population (%),"[2]; Bottom of the pallet, Beginning of bath",93%
same,Reduction of the fungal population (%),"[2]; Bottom of the pallet, End of bath",96%
same,Reduction of the fungal population (%),"[2]; Side of the pallet, Beginning of bath",100%
same,Reduction of the fungal population (%),"[2]; Side of the pallet, End of bath",87%
same,phytotoxicity to the plant,[3],did not suffer phytotoxicity
same,Reduction in the population of the mixture of fungi expressed in %,"[4]; 2000 ppm, Environment",100%
same,Reduction in the population of the mixture of fungi expressed in %,"[4]; 2000 ppm, Walls",95%
same,Reduction in the population of the mixture of fungi expressed in %,"[4]; 5000 ppm, Environment",100%
same,Reduction in the population of the mixture of fungi expressed in %,"[4]; 5000 ppm, Walls",100%
same,% of fruit affected,"[5]; 2500 ppm, oranges refrigerated for 28 days at 5° C., 200 fruits not inoculated",15%
same,reduction of the quantity of fruit affected compared to the untreated fruit,"[5]; specified doses, end of the refrigeration period (28 days at 5° C.)",50%
same,Reduction of the population (%),"[6]; 2000 ppm, Plastic container",77%
same,Reduction of the population (%),"[6]; 2000 ppm, Wood container",78%
same,Reduction of the population (%),"[6]; 5000 ppm, Plastic container",71%
same,Reduction of the population (%),"[6]; 5000 ppm, Wood container",56%
same,diameter of the microbial inhibition halo,[7]; 60 ppm,0 mm
same,diameter of the microbial inhibition halo,[7]; 125 ppm,12 mm
same,diameter of the microbial inhibition halo,[7]; 250 ppm,20 mm
same,diameter of the microbial inhibition halo,[7]; 500 ppm,30 mm
same,diameter of the microbial inhibition halo,[7]; 1000 ppm,40 mm
same,diameter of the microbial inhibition halo,[8]; 60 ppm,26 mm
same,diameter of the microbial inhibition halo,[8]; 125 ppm,33 mm
same,diameter of the microbial inhibition halo,[8]; 250 ppm,45 mm
same,diameter of the microbial inhibition halo,[8]; 500 ppm,45 mm
same,diameter of the microbial inhibition halo,[8]; 1000 ppm,45 mm
same,Reduction of the population (%),[9]; [16],100%
same,Reduction of the population (%),"[9]; organic matter Absence, 1 hour",100%
same,Reduction of the population (%),[9]; [17],100%
same,Reduction of the population (%),[9]; [18],100%
same,Reduction of the population (%),[9]; [19],100%
same,Reduction of the population (%),[9]; [20],100%
same,Reduction of the population (%),[9]; [21],100%
same,Reduction of the population (%),[9]; [22],100%
same,Reduction of the population (%),[10]; [16],100%
same,Reduction of the population (%),"[10]; organic matter Absence, 1 hour",100%
same,Reduction of the population (%),[10]; [17],100%
same,Reduction of the population (%),[10]; [18],100%
same,Reduction of the population (%),[10]; [19],100%
same,Reduction of the population (%),[10]; [20],100%
same,Reduction of the population (%),[10]; [21],100%
same,Reduction of the population (%),[10]; [22],85%
same,Reduction of the population (%),"[11]; 2000 ppm, Plastic container",100%
same,Reduction of the population (%),"[11]; 2000 ppm, Wood container",96%
same,Reduction of the population (%),"[11]; 5000 ppm, Plastic container",100%
same,Reduction of the population (%),"[11]; 5000 ppm, Wood container",98%
same,diameter of the microbial inhibition halo,[12]; 60 ppm,27 mm
same,diameter of the microbial inhibition halo,[12]; 125 ppm,36 mm
same,diameter of the microbial inhibition halo,[12]; 250 ppm,42 mm
same,diameter of the microbial inhibition halo,[12]; 500 ppm,50 mm
same,diameter of the microbial inhibition halo,[12]; 1000 ppm,68 mm
same,Reduction of the population (%),"[13]; 2000 ppm, Plastic container",94%
same,Reduction of the population (%),"[13]; 2000 ppm, Wood container",67%
same,Reduction of the population (%),"[13]; 5000 ppm, Plastic container",92%
same,Reduction of the population (%),"[13]; 5000 ppm, Wood container",70%
same,diameter of the microbial inhibition halo,[14]; 60 ppm,16 mm
same,diameter of the microbial inhibition halo,[14]; 125 ppm,17 mm
same,diameter of the microbial inhibition halo,[14]; 250 ppm,25 mm
same,diameter of the microbial inhibition halo,[14]; 500 ppm,25 mm
same,diameter of the microbial inhibition halo,[14]; 1000 ppm,27 mm
same,diameter of the microbial inhibition halo,[15]; 60 ppm,6.5 mm
same,diameter of the microbial inhibition halo,[15]; 125 ppm,8 mm
same,diameter of the microbial inhibition halo,[15]; 250 ppm,9 mm
same,diameter of the microbial inhibition halo,[15]; 500 ppm,10 mm
same,diameter of the microbial inhibition halo,[15]; 1000 ppm,12 mm

# Reference: patent publication US20090018194A1, “Use of antimicrobial agents derived from alliaceous plants for the prevention and control of crop diseases, post-harvest rot and as environmental disinifectant products” (DMC Research Center, S.L., priority 2007, published 2009)
